Results reported in PubChem BioAssay (NCI).
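A five-concentration, 48-hour dose response in 96-well plates underlies each endpoint, interpolated linearly between surrounding concentrations. GI50 is the concentration that inhibits growth by half. TGI is the concentration that stops growth completely.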

How the values were obtained:
Assay in all cases: inhibition of tumour cell growth, NCI panel, 48 h
SK-MEL-2 melanoma = test system: SK-MEL-2 melanoma
SF-268 CNS = test system: SF-268 CNS
SR leukemia = test system: SR leukemia
NCI-H522 lung = test system: NCI-H522 lung
DU-145 prostate = test system: DU-145 prostate
MDA-MB-435 = test system: MDA-MB-435
MDA-MB-468 breast = test system: MDA-MB-468 breast
SK-MEL-28 melanoma = test system: SK-MEL-28 melanoma
SF-539 CNS = test system: SF-539 CNS
SNB-19 CNS = test system: SNB-19 CNS
HOP-62 NSCLC = test system: HOP-62 NSCLC
NCI-H226 lung = test system: NCI-H226 lung
HS 578T breast = test system: HS 578T breast
OVCAR-8 ovarian = test system: OVCAR-8 ovarian
IGROV1 ovarian = test system: IGROV1 ovarian
NCI-H23 lung = test system: NCI-H23 lung
CAKI-1 renal = test system: CAKI-1 renal
CCRF-CEM leukemia = test system: CCRF-CEM leukemia
A498 renal = test system: A498 renal
OVCAR-3 ovarian = test system: OVCAR-3 ovarian
BT-549 breast = test system: BT-549 breast
HT29 colon = test system: HT29 colon
EKVX NSCLC = test system: EKVX NSCLC
HCT-116 colon = test system: HCT-116 colon
SK-MEL-5 melanoma = test system: SK-MEL-5 melanoma
PC-3 prostate = test system: PC-3 prostate
MALME-3M melanoma = test system: MALME-3M melanoma
ACHN renal = test system: ACHN renal
A549 NSCLC = test system: A549 NSCLC
UACC-257 melanoma = test system: UACC-257 melanoma
U251 CNS = test system: U251 CNS
MDA-MB-231 breast = test system: MDA-MB-231 breast
UACC-62 melanoma = test system: UACC-62 melanoma
OVCAR-5 ovarian = test system: OVCAR-5 ovarian
TK-10 renal = test system: TK-10 renal
HL-60(TB) leukemia = test system: HL-60(TB) leukemia
K-562 leukemia = test system: K-562 leukemia
786-0 renal = test system: 786-0 renal
KM12 colon = test system: KM12 colon
NCI-H460 lung = test system: NCI-H460 lung
COLO 205 colon = test system: COLO 205 colon
RXF 393 renal = test system: RXF 393 renal
T-47D breast = test system: T-47D breast
UO-31 renal = test system: UO-31 renal
MOLT-4 leukemia = test system: MOLT-4 leukemia
HCC-2998 colon = test system: HCC-2998 colon
LOX IMVI melanoma = test system: LOX IMVI melanoma
M14 melanoma = test system: M14 melanoma
OVCAR-4 ovarian = test system: OVCAR-4 ovarian
SK-OV-3 ovarian = test system: SK-OV-3 ovarian
MCF7 breast = test system: MCF7 breast
HCT-15 colon = test system: HCT-15 colon
HOP-92 NSCLC = test system: HOP-92 NSCLC
SNB-75 CNS = test system: SNB-75 CNS
SN12C renal = test system: SN12C renal
SW-620 colon = test system: SW-620 colon
RPMI-8226 leukemia = test system: RPMI-8226 leukemia
SF-295 CNS = test system: SF-295 CNS

## COc1ccccc1[C@H]1C(C(=O)c2ccc(Cl)cc2)C2(N[C@@H]1c1ccccc1)C(=O)Nc1ccccc12 (stereo partly specified)
SK-MEL-2 melanoma
  GI50: 1.73 µM
  TGI: 6.06 µM
SF-268 CNS
  GI50: 2.19 µM
  TGI: 29.8 µM
SR leukemia
  GI50: 1.42 µM
  TGI: 4.26 µM
NCI-H522 lung
  GI50: 1.24 µM
  TGI: 4.17 µM
DU-145 prostate
  GI50: 2.45 µM
  TGI: 24.9 µM
MDA-MB-435
  GI50: 1.48 µM
  TGI: 3.73 µM
MDA-MB-468 breast
  GI50: 1.24 µM
  TGI: 3.85 µM
SK-MEL-28 melanoma
  GI50: 4.16 µM
  TGI: 13.2 µM
SF-539 CNS
  GI50: 2.83 µM
  TGI: 10.5 µM
SNB-19 CNS
  GI50: 3.34 µM
  TGI: 61.5 µM
HOP-62 NSCLC
  GI50: 3.86 µM
  TGI: 14 µM
NCI-H226 lung
  GI50: 1.61 µM
  TGI: 9.08 µM
HS 578T breast
  GI50: 1.67 µM
  TGI: 10.4 µM
OVCAR-8 ovarian
  GI50: 1.94 µM
  TGI: 8.55 µM
IGROV1 ovarian
  GI50: 1.95 µM
  TGI: 11.6 µM
NCI-H23 lung
  GI50: 1.83 µM
  TGI: 8.71 µM
CAKI-1 renal
  GI50: 1.23 µM
  TGI: 51.5 µM
CCRF-CEM leukemia
  GI50: 1.91 µM
  TGI: 8.25 µM
A498 renal
  GI50: 4.75 µM
  TGI: 18 µM
OVCAR-3 ovarian
  GI50: 2.19 µM
  TGI: 12.1 µM
BT-549 breast
  GI50: 1.97 µM
  TGI: 6.57 µM
HT29 colon
  GI50: 1.49 µM
  TGI: 4.1 µM
EKVX NSCLC
  GI50: 2.13 µM
  TGI: 61.5 µM
HCT-116 colon
  GI50: 1.5 µM
  TGI: 4.66 µM
SK-MEL-5 melanoma
  GI50: 1.87 µM
  TGI: 6.52 µM
PC-3 prostate
  GI50: 1.85 µM
  TGI: 13.6 µM
MALME-3M melanoma
  GI50: 3.36 µM
  TGI: 12.1 µM
ACHN renal
  GI50: 1.99 µM
  TGI: 22.5 µM
A549 NSCLC
  GI50: 1.99 µM
  TGI: 12 µM
UACC-257 melanoma
  GI50: 2.63 µM
  TGI: 14 µM
U251 CNS
  GI50: 1.81 µM
  TGI: 7.38 µM
MDA-MB-231 breast
  GI50: 1.6 µM
  TGI: 5.79 µM
UACC-62 melanoma
  GI50: 1.86 µM
  TGI: 8.04 µM
OVCAR-5 ovarian
  GI50: 3.24 µM
  TGI: 19.5 µM
TK-10 renal
  GI50: 3.68 µM
  TGI: 33.2 µM
HL-60(TB) leukemia
  GI50: 1.42 µM
  TGI: 5.48 µM
K-562 leukemia
  GI50: 1.78 µM
  TGI: 44.4 µM
786-0 renal
  GI50: 2.13 µM
  TGI: 10.1 µM
KM12 colon
  GI50: 2.45 µM
  TGI: 14.6 µM
NCI-H460 lung
  GI50: 1.21 µM
  TGI: 2.89 µM
COLO 205 colon
  GI50: 2.25 µM
  TGI: 9.75 µM
RXF 393 renal
  GI50: 1.32 µM
  TGI: 3.51 µM
T-47D breast
  GI50: 1.97 µM
  TGI: 44.1 µM
UO-31 renal
  GI50: 1.11 µM
  TGI: 12.5 µM
MOLT-4 leukemia
  GI50: 1.75 µM
  TGI: 16.1 µM
HCC-2998 colon
  GI50: 2.1 µM
  TGI: 7.72 µM
LOX IMVI melanoma
  GI50: 1.55 µM
  TGI: 6.15 µM
M14 melanoma
  GI50: 1.81 µM
  TGI: 7.63 µM
OVCAR-4 ovarian
  GI50: 2.36 µM
  TGI: 31.8 µM
SK-OV-3 ovarian
  GI50: 4.24 µM
  TGI: 55.3 µM
MCF7 breast
  GI50: 1.67 µM
  TGI: 8.88 µM
HCT-15 colon
  GI50: 1.9 µM
  TGI: 11.5 µM
HOP-92 NSCLC
  GI50: 1.79 µM
  TGI: 5.88 µM
SNB-75 CNS
  GI50: 1.13 µM
  TGI: 13.2 µM
SN12C renal
  GI50: 1.24 µM
  TGI: 2.9 µM
SW-620 colon
  GI50: 1.86 µM
  TGI: 24.4 µM
RPMI-8226 leukemia
  GI50: 2.06 µM
  TGI: 21.9 µM
SF-295 CNS
  GI50: 2.39 µM
  TGI: 12.6 µM
